Source: patent US20100184603A1, “Alcohol alkoxylates, compositions containing these, and use of the alcohol alkoxylates as adjuvants for the agrochemical field” (BASF SE, priority 2007, published 2010)

Test system: leaf rust of wheat "Puccinia recondita"
Assay: Biotest: curative control of leaf rust of wheat
Assay type: in vivo
Details: wheat seedlings "Kanzler", curative spray 2 days after inoculation; 50 ppm epoxiconazole without adjuvant; disease percent of total leaf area after 10 days
Protocol: 125 g/l epoxiconazole were ground together with in each case 20 g/l dispersant (Atlas G 5000^1, Synperonic A^1) and 50 g/l propylene glycol in aqueous medium in a stirred-ball mill (dyno-mill) until a particle size of 80%<2 μm was reached. To the mixture were added 3 g/l per liter antifoam, for example Rhodorsil 426^2, 3 g/l thickener, for example Rhodopol 23^2, and a biocide, for example Acticide MBS^3. The respective adjuvant, in aqueous solution or in a solvent, for example Solvesso, was stirred into this mixture, so that the final concentration of the formulation is composed of 62.5 g/l epoxiconazole and 125 g/l adjuvant. ^1Uniquema/Croda^2Rhodia^3Thor Chemie
Biotest (Curative Control of Leaf Rust of Wheat):
Leaves of wheat seedlings of the species “Kanzler” which had been grown in pots were dusted, in the two-leaf stage, with spores of leaf rust of wheat “Puccinia recondita” and incubated for 2 days in the greenhouse at high atmospheric humidity. In fully automated spray cabins, the plants were then sprayed with the formulations which comprised the active ingredients and adjuvants specified hereinbelow. The spray mixtures comprised 50 ppm epoxiconazole and 100 ppm adjuvant. […] After 10 days, the extent of the leaf rust disease was determined visually as disease percent of the total leaf area. 3 pots were evaluated for each combination.

Structure (SMILES): Fc1ccc([C@]2(Cn3cncn3)O[C@H]2c2ccccc2Cl)cc1 (racemic) [Epoxiconazole]
- % infection: 40%
